Results taken from patent US20040063662A1, “Selenophene anti-tumor agents” (priority 1996, published 2004).

Assays:
CCRF-CEM = test: NCI human tumor cell panel: CCRF-CEM (Leukemia); type: cell-based; settings: for GI50: read-out: Log10 GI50 (converted); for IC (TGI): read-out: Log10 TGI (converted)
K-562 = test: NCI human tumor cell panel: K-562 (Leukemia); type: cell-based; settings: for GI50: K562, K-562, read-out: Log10 GI50 (converted); for IC (TGI): K562, K-562, read-out: Log10 TGI (converted)
MOLT-4 = test: NCI human tumor cell panel: MOLT-4 (Leukemia); type: cell-based; settings: for GI50: MOLT-4, read-out: Log10 GI50 (converted); for IC (TGI): MOLT-4, read-out: Log10 TGI (converted)
RPMI-8226 = test: NCI human tumor cell panel: RPMI-8226 (Leukemia); type: cell-based; settings: for GI50: RPMI-8226, read-out: Log10 GI50 (converted); for IC (TGI): RPMI-8226, read-out: Log10 TGI
A549/ATCC = test: NCI human tumor cell panel: A549/ATCC (Non-Small Cell Lung Cancer); type: cell-based; settings: for GI50: read-out: Log10 GI50 (converted); for IC (TGI): read-out: Log10 TGI (converted)
NCI-H460 = test: NCI human tumor cell panel: NCI-H460 (Non-Small Cell Lung Cancer); type: cell-based; settings: for GI50: NCI-H460, read-out: Log10 GI50 (converted); for IC (TGI): NCI-H460, read-out: Log10 TGI (converted)
HCC-2998 = test: NCI human tumor cell panel: HCC-2998 (Colon Cancer); type: cell-based; settings: for GI50: HCC-2998, read-out: Log10 GI50 (converted); for IC (TGI): HCC-2998, read-out: Log10 TGI (converted)
HCT-116 = test: NCI human tumor cell panel: HCT-116 (Colon Cancer); type: cell-based; settings: for GI50: HCT-116, read-out: Log10 GI50 (converted); for IC (TGI): HCT-116, read-out: Log10 TGI (converted)
SF-295 = test: NCI human tumor cell panel: SF-295 (CNS Cancer); type: cell-based; settings: for GI50: SF-295, read-out: Log10 GI50 (converted); for IC (TGI): SF-295, read-out: Log10 TGI (converted)
SNB-19 = test: NCI human tumor cell panel: SNB-19 (CNS Cancer); type: cell-based; settings: for GI50: SNB-19, read-out: Log10 GI50 (converted); for IC (TGI): SNB-19, read-out: Log10 TGI (converted)
SNB-75 = test: NCI human tumor cell panel: SNB-75 (CNS Cancer); type: cell-based
U251 = test: NCI human tumor cell panel: U251 (CNS Cancer); type: cell-based; settings: for GI50: U-251, U251, read-out: Log10 GI50 (converted); for IC (TGI): U-251, U251, read-out: Log10 TGI (converted)
LOX IMVI = test: NCI human tumor cell panel: LOX IMVI (Melanoma); type: cell-based; settings: for GI50: read-out: Log10 GI50 (converted); for IC (TGI): read-out: Log10 TGI (converted)
M14 = test: NCI human tumor cell panel: M14 (Melanoma); type: cell-based; settings: for GI50: M14, read-out: Log10 GI50 (converted); for IC (TGI): M14, read-out: Log10 TGI (converted)
SK-MEL-5 = test: NCI human tumor cell panel: SK-MEL-5 (Melanoma); type: cell-based; settings: for IC (TGI): SK-MEL-5, read-out: Log10 TGI (converted)
UACC-257 = test: NCI human tumor cell panel: UACC-257 (Melanoma); type: cell-based; settings: for GI50: UACC-257, read-out: Log10 GI50 (converted); for IC (TGI): UACC-257, read-out: Log10 TGI (converted)
IGROV1 = test: NCI human tumor cell panel: IGROV1 (Ovarian Cancer); type: cell-based
OVCAR-3 = test: NCI human tumor cell panel: OVCAR-3 (Ovarian Cancer); type: cell-based; settings: for GI50: OVCAR-3, read-out: Log10 GI50 (converted); for IC (TGI): OVCAR-3, read-out: Log10 TGI (converted)
OVCAR-8 = test: NCI human tumor cell panel: OVCAR-8 (Ovarian Cancer); type: cell-based; settings: for GI50: OVCAR-8, read-out: Log10 GI50 (converted); for IC (TGI): OVCAR-8, read-out: Log10 TGI (converted)
786-0 = test: NCI human tumor cell panel: 786-0 (Renal Cancer); type: cell-based; settings: for GI50: 786-0, read-out: Log10 GI50 (converted); for IC (TGI): 786-0, read-out: Log10 TGI (converted)
TK-10 = test: NCI human tumor cell panel: TK-10 (Renal Cancer); type: cell-based; settings: for GI50: TK-10, read-out: Log10 GI50 (converted); for IC (TGI): TK-10, read-out: Log10 TGI (converted)
UO-31 = test: NCI human tumor cell panel: UO-31 (Renal Cancer); type: cell-based; settings: for GI50: UO-31, read-out: Log10 GI50 (converted); for IC (TGI): UO-31, read-out: Log10 TGI (converted)
PC-3 = test: NCI human tumor cell panel: PC-3 (Prostate Cancer); type: cell-based; settings: for GI50: PC-3, read-out: Log10 GI50 (converted); for IC (TGI): PC-3, read-out: Log10 TGI (converted)
DU-145 = test: NCI human tumor cell panel: DU-145 (Prostate Cancer); type: cell-based; settings: for GI50: DU-145, read-out: Log10 GI50 (converted); for IC (TGI): DU-145, read-out: Log10 TGI (converted)
MCF7 = test: NCI human tumor cell panel: MCF7 (Breast Cancer); type: cell-based; settings: for GI50: MCF7, read-out: Log10 GI50 (converted); for IC (TGI): MCF7, read-out: Log10 TGI (converted)
MCF7/ADR-RES = test: NCI human tumor cell panel: MCF7/ADR-RES (Breast Cancer); type: cell-based; settings: for GI50: read-out: Log10 GI50 (converted); for IC (TGI): read-out: Log10 TGI (converted)
MDA-N = test: NCI human tumor cell panel: MDA-N (Breast Cancer); type: cell-based; settings: for GI50: read-out: Log10 GI50 (converted); for IC (TGI): read-out: Log10 TGI (converted)
HOP-92 = test: NCI human tumor cell panel: HOP-92 (Non-Small Cell Lung Cancer); settings: for GI50: HOP-92, read-out: Log10 GI50 (converted); for IC (TGI): HOP-92, read-out: Log10 TGI
ACHN = test: NCI human tumor cell panel: ACHN (Renal Cancer); type: cell-based
HS 578T = test: NCI human tumor cell panel: HS 578T (Breast Cancer); type: cell-based
MDA-MB-435 = test: NCI human tumor cell panel: MDA-MB-435 (Breast Cancer); type: cell-based
BT-549 = test: NCI human tumor cell panel: BT-549 (Breast Cancer); type: cell-based
[1] = read-out: Log10 GI50 (converted)
[2] = read-out: Log10 TGI (converted)

OCc1ccc(-c2ccc(-c3ccc[se]3)[se]2)[se]1 [compound 675246]
GI50 (CCRF-CEM): 3.16 µM | IC (TGI) (CCRF-CEM): 12.3 µM | GI50 (K-562): 0.372 µM | IC (TGI) (K-562): 7.59 µM | GI50 (MOLT-4): 3.24 µM | IC (TGI) (MOLT-4): 12 µM | GI50 (RPMI-8226): 7.41 µM | IC (TGI) (RPMI-8226): > 100 µM | GI50 (A549/ATCC): 10.5 µM | IC (TGI) (A549/ATCC): 22.4 µM | GI50 (NCI-H460): 0.324 µM | IC (TGI) (NCI-H460): 3.63 µM | GI50 (HCC-2998): 1.23 µM | IC (TGI) (HCC-2998): 11.7 µM | GI50 (HCT-116): 0.0646 µM | IC (TGI) (HCT-116): 10.7 µM | GI50 (SF-295): 10.7 µM | IC (TGI) (SF-295): 27.5 µM | GI50 (SNB-19): 12.3 µM | IC (TGI) (SNB-19): 52.5 µM | GI50 (SNB-75; SNB-75, read-out: Log10 GI50 (converted)): 3.89 µM | IC (TGI) (SNB-75; SNB-75, read-out: Log10 TGI (converted)): > 100 µM | GI50 (U251): 0.0708 µM | IC (TGI) (U251): 12.3 µM | GI50 (LOX IMVI): 3.63 µM | IC (TGI) (LOX IMVI): 9.77 µM | GI50 (M14): 8.71 µM | IC (TGI) (M14): 24 µM | GI50 (SK-MEL-5; SK-MEL-5, read-out: Log10 GI50 (converted)): 2.63 µM | IC (TGI) (SK-MEL-5): 8.91 µM | GI50 (UACC-257): 0.0501 µM | IC (TGI) (UACC-257): 0.224 µM | GI50 (IGROV1; IGROV-1, IGROV1, read-out: Log10 GI50 (converted)): 0.0537 µM | IC (TGI) (IGROV1; IGROV-1, IGROV1, read-out: Log10 TGI (converted)): 2.24 µM | GI50 (OVCAR-3): 0.0603 µM | IC (TGI) (OVCAR-3): 1.29 µM | GI50 (OVCAR-8): 5.01 µM | IC (TGI) (OVCAR-8): 33.1 µM | GI50 (786-0): 2.19 µM | IC (TGI) (786-0): 5.25 µM | GI50 (TK-10): 1.91 µM | IC (TGI) (TK-10): 10.7 µM | GI50 (UO-31): 6.17 µM | IC (TGI) (UO-31): 38.9 µM | GI50 (PC-3): 3.8 µM | IC (TGI) (PC-3): 13.2 µM | GI50 (DU-145): 10.2 µM | IC (TGI) (DU-145): 21.9 µM | GI50 (MCF7): 0.145 µM | IC (TGI) (MCF7): 3.8 µM | GI50 (MCF7/ADR-RES): 5.13 µM | IC (TGI) (MCF7/ADR-RES): 46.8 µM | GI50 (MDA-N): 9.77 µM | IC (TGI) (MDA-N): 56.2 µM | GI50 (HOP-92): 2.63 µM | IC (TGI) (HOP-92): 11.2 µM

OCc1ccc(-c2ccc(-c3ccc(CO)s3)[se]2)s1 [compound 675343]
GI50 (CCRF-CEM): 22.4 µM | IC (TGI) (CCRF-CEM): 60.3 µM | GI50 (K-562): < 0.01 µM | IC (TGI) (K-562): 26.3 µM | GI50 (MOLT-4): 28.8 µM | IC (TGI) (MOLT-4): 87.1 µM | GI50 (RPMI-8226): > 100 µM | IC (TGI) (RPMI-8226): > 100 µM | GI50 (A549/ATCC): > 100 µM | IC (TGI) (A549/ATCC): > 100 µM | GI50 (NCI-H460): < 0.01 µM | IC (TGI) (NCI-H460): > 100 µM | GI50 (HCC-2998): < 0.01 µM | IC (TGI) (HCC-2998): 3.39 µM | GI50 (HCT-116): < 0.01 µM | IC (TGI) (HCT-116): > 100 µM | GI50 (SF-295): > 100 µM | IC (TGI) (SF-295): > 100 µM | GI50 (SNB-19): > 100 µM | IC (TGI) (SNB-19): > 100 µM | GI50 (U251): < 0.01 µM | IC (TGI) (U251): > 100 µM | GI50 (LOX IMVI): > 100 µM | IC (TGI) (LOX IMVI): > 100 µM | GI50 (M14): > 100 µM | IC (TGI) (M14): > 100 µM | IC (TGI) (SK-MEL-5): > 100 µM | GI50 (UACC-257): < 0.01 µM | IC (TGI) (UACC-257): < 0.01 µM | GI50 (OVCAR-3): 0.0257 µM | IC (TGI) (OVCAR-3): 32.4 µM | GI50 (OVCAR-8): < 0.01 µM | IC (TGI) (OVCAR-8): > 100 µM | GI50 (786-0): > 100 µM | IC (TGI) (786-0): > 100 µM | GI50 (ACHN; [1]): > 100 µM | IC (TGI) (ACHN; [2]): > 100 µM | GI50 (TK-10): < 0.01 µM | IC (TGI) (TK-10): < 0.01 µM | GI50 (UO-31): > 100 µM | IC (TGI) (UO-31): > 100 µM | GI50 (PC-3): > 100 µM | IC (TGI) (PC-3): > 100 µM | GI50 (DU-145): > 100 µM | IC (TGI) (DU-145): > 100 µM | GI50 (MCF7): < 0.01 µM | IC (TGI) (MCF7): > 100 µM | GI50 (MCF7/ADR-RES): > 100 µM | IC (TGI) (MCF7/ADR-RES): > 100 µM | GI50 (HS 578T; [1]): > 100 µM | IC (TGI) (HS 578T; [2]): > 100 µM | GI50 (MDA-MB-435; MDA-MB-435, read-out: Log10 GI50 (converted)): > 100 µM | IC (TGI) (MDA-MB-435; MDA-MB-435, read-out: Log10 TGI (converted)): > 100 µM | GI50 (MDA-N): > 100 µM | IC (TGI) (MDA-N): > 100 µM | GI50 (BT-549; BT-549, read-out: Log10 GI50 (converted)): > 100 µM | IC (TGI) (BT-549; BT-549, read-out: Log10 TGI (converted)): > 100 µM | GI50 (HOP-92): 40.7 µM | IC (TGI) (HOP-92): > 100 µM
